Some results are limits rather than exact numbers.

Results on 26 molecules are retold here after ChEMBL document CHEMBL1122820, “Purine and 8-substituted purine arabinofuranosyl and ribofuranosyl nucleoside derivatives as potential inducers of the differentiation of the Friend erythroleukemia” (1985).

The subject of assay [1] is Erythroleukemia cell line. In words: Percent benzidine-positive cells in friend erythroleukemia cells was evaluated (deoxy-coformycin added at 25 uM). Format: functional, Mus musculus.
In assay [2] the test system is Erythroleukemia cell line. Nature of the assay: Percent benzidine-positive cell differentiation in friend erythroleukemia cells. Format: functional, Mus musculus.
The subject of assay [3] is Erythroleukemia cell line. In words: Compound was evaluated for the inhibition of Cellular Replication (deoxy-coformycin added at 25 uM). Format: functional. The note with it: Mus musculus, read-out: ID50 (the source's name).
For assay [4], the system named is Erythroleukemia cell line. In words: Optimum concentration for differentiation of friend erythroleukemia cells. Format: functional, Mus musculus.
Assay [5] deals with Erythroleukemia cell line. In words: Optimum concentration for the extent of differentiation of friend erythroleukemia cells was evaluated.(deoxy-coformycin added at 25 uM). Format: functional, Mus musculus.
Assay [6] deals with Erythroleukemia cell line. In words: Inhibition of Cellular Replication of friend erythroleukemia cells. Format: functional. The note with it: Mus musculus, read-out: ID50 (the source's name).
Assay [7] has as its system Erythroleukemia cell line. In words: Percent benzidine-positive cell differentiation of friend erythroleukemia cells was evaluated.(deoxy-coformycin added at 25 uM). Format: functional, Mus musculus.
Assay [8] has as its system Erythroleukemia cell line. Nature of the assay: Percent benzidine-positive cell differentiation of friend erythroleukemia cells was evaluated (deoxy-coformycin added at 25 uM). Format: functional, Mus musculus.

On to `Nc1ncnc2c1nc(Br)n2[C@@H]1O[C@H](CO)[C@@H](O)[C@H]1O`, for which the Differentiation in assay [1] and in assay [2] was 1% throughout. In addition, the IC50 in assay [3] and in assay [6] was above 1000 µM each time. The Optimal concentration in assay [4] and in assay [5] was 1 mM each time.
With `OC[C@H]1O[C@@H](n2cnc3c(O)ncnc32)[C@@H](O)[C@@H]1O`, the Differentiation in assay [2] was determined as 82%. In addition, the Optimal concentration in assay [4] is recorded as 0.2 mM. The IC50 in assay [6] worked out at 600 µM.
On the same counts, the results for `[N-]=[N+]=Nc1nc2c(O)ncnc2n1[C@@H]1O[C@H](CO)[C@@H](O)[C@@H]1O` are 20%, 0.5 mM and 860 µM.
On the same counts, the results for `Nc1nc2c(O)ncnc2n1[C@@H]1O[C@H](CO)[C@@H](O)[C@H]1O` are 1%, 0.025 mM and 52 µM.
For `Nc1nc2c(O)ncnc2n1[C@@H]1O[C@H](CO)[C@@H](O)[C@@H]1O`, in that order: 6%, 4 mM and above 5000 µM.
In assay [2], `[N-]=[N+]=Nc1nc2c(O)ncnc2n1[C@@H]1O[C@H](CO)[C@@H](O)[C@H]1O` returned a Differentiation of 30%. The same molecule had an Optimal concentration in assay [4] of 1 mM. In addition, the IC50 in assay [6] is 720 µM.
On the same counts, the results for `CSc1ncnc2c1ncn2[C@@H]1O[C@H](CO)[C@@H](O)[C@@H]1O` are 49%, 1.5 mM and above 3000 µM.
For `OC[C@H]1O[C@@H](n2c(Br)nc3c(O)ncnc32)[C@@H](O)[C@@H]1O`, in that order: 1%, 4 mM and above 2500 µM.
`CN(C)c1nc2c(O)ncnc2n1[C@@H]1O[C@H](CO)[C@@H](O)[C@@H]1O` came in with a Differentiation in assay [2] of 2%. Moreover, the Optimal concentration in assay [4] is recorded as 8 mM. In addition, the IC50 in assay [6] is above 8000 µM.
Regarding `Nc1ncnc2c1nc(Br)n2[C@@H]1O[C@H](CO)[C@@H](O)[C@@H]1O`, the values for the Differentiation in assay [7] and in assay [2] were 2% and 1%, respectively. Further, the IC50 in assay [3] turned out to be 850 µM; in assay [6] it was 1600 µM. Also, the Optimal concentration in assay [4] is on record as 1.6 mM; in assay [5] it was 0.8 mM.
As for `OC[C@H]1O[C@@H](n2cnc3c(S)ncnc32)[C@@H](O)[C@@H]1O`, the Differentiation in assay [2] is reported as 56%. Besides, the Optimal concentration in assay [4] was determined as 0.02 mM. For the same molecule, in assay [6], the IC50 stood at 110 µM.
The molecule `OC[C@H]1O[C@@H](n2c(Br)nc3c(O)ncnc32)[C@H](O)[C@@H]1O` yielded a Differentiation in assay [2] of 1%. Moreover, the Optimal concentration in assay [4] is reported as 5 mM. Moreover, the IC50 in assay [6] was above 5000 µM.
For `CN(C)c1nc2c(O)ncnc2n1[C@@H]1O[C@H](CO)[C@@H](O)[C@H]1O`, in that order: 3%, 8 mM and above 8000 µM.
`OC[C@H]1O[C@@H](n2cnc3c(NO)ncnc32)[C@@H](O)[C@@H]1O`: the figures for the Differentiation in assay [1] and in assay [2] were 20% and 74%, respectively. In addition, the results for the IC50 in assay [3] and in assay [6] were 69 µM and 540 µM, respectively. The Optimal concentration turned out to be 0.2 mM in assay [4] and 0.04 mM in assay [5].
With `[N-]=[N+]=N[C@H]1[C@H](O)[C@@H](CO)O[C@H]1n1cnc2c(O)ncnc21`, in assay [2], the Differentiation turned out to be 40%. In assay [4], this molecule came in with an Optimal concentration of 2 mM. Also, the IC50 in assay [6] was found to be 6000 µM.
For `CSc1ncnc2c1ncn2[C@@H]1O[C@H](CO)[C@@H](O)[C@H]1O`, in that order: 51%, 0.005 mM and 7 µM.
With `OC[C@H]1OC(n2c(S)nc3c(O)ncnc32)[C@H](O)[C@@H]1O` (stereo partly specified), the Differentiation in assay [2] is on record as 1%. The same molecule returned an Optimal concentration in assay [4] of 4 mM. Moreover, in assay [6], the IC50 is above 4000 µM.
For the molecule `O=c1[nH]c(=O)c2nc(O)n(C3O[C@H](CO)[C@@H](O)[C@H]3O)c2[nH]1` (stereo partly specified), in assay [2], the Differentiation is listed as 3%. Besides, the Optimal concentration in assay [4] stood at 7 mM. Besides, the IC50 in assay [6] was above 7000 µM.
For `O=c1[nH]c(=O)c2nc(Br)n(C3O[C@H](CO)[C@@H](O)[C@H]3O)c2[nH]1` (stereo partly specified), in that order: 1%, 7 mM and above 7000 µM.
For `O=c1[nH]c(=O)c2nc(OCc3ccccc3)n(C3O[C@H](CO)[C@@H](O)[C@H]3O)c2[nH]1` (stereo partly specified), in that order: 6%, 7 mM and above 7000 µM.
As to `Nc1ncnc2c1ncn2[C@@H]1O[C@H](CO)[C@@H](O)[C@H]1O` [ADENOSINE], the Differentiation in assay [8] was found to be 2%; in assay [2] it was 3%. The IC50 in assay [3] was 50 µM; in assay [6], above 4000 µM. The Optimal concentration in assay [4] was found to be 4 mM; in assay [5], 0.04 mM.
`C[S+](C)[O-]` [DIMETHYL SULFOXIDE]: the Differentiation in assay [2] was found to be 70%. In assay [4], the Optimal concentration is recorded as 200 mM.
As to `O=c1[nH]cnc2c1ncn2[C@@H]1O[C@H](CO)[C@@H](O)[C@H]1O` [INOSINE], in assay [2], the Differentiation stood at 12%. Further, the Optimal concentration in assay [4] was determined as 7 mM. For the same molecule, in assay [6], the IC50 was above 7000 µM.
On the same counts, the results for `OC[C@H]1O[C@@H](n2cnc3c(S)ncnc32)[C@H](O)[C@@H]1O` [THIOINOSINE] are 51%, 1 mM and above 2000 µM.
For `Nc1ncnc2c1ncn2[C@@H]1O[C@H](CO)[C@@H](O)[C@@H]1O` [VIDARABINE], the results for the Differentiation in assay [8] and in assay [2] were 22% and 4%, respectively. The IC50 in assay [3] is 3 µM; in assay [6], 94 µM. The Optimal concentration in assay [4] came to 0.08 mM; in assay [5], 0.002 mM.
In turn, `OC[C@H]1O[C@@H](n2cnc3c(O)nc(O)nc32)[C@H](O)[C@@H]1O` [XANTHOSINE] returned an Optimal concentration in assay [4] of 7 mM. Further, the IC50 in assay [6] was above 7000 µM.
